The source of these data is patent publication US8518980B2, “Treatment of Duchenne muscular dystrophy” (Summit Corporation PLC, priority 2006, dated 2013).

Molecules are shown by their SMILES.

The subject of the experiment is Utrophin A promoter linked to a luciferase reporter gene (H2K/mdx/Utro A reporter cell line). The experiment can be described thus: Luciferase reporter assay (murine H2K cells). The settings on record: Mus musculus, H2K mdx. (A reporter such as luciferase makes a cellular process visible.)

As for `Cc1cc2oc(C(=O)NCc3ccncc3)c(C)c2cc1C` [Example 656, 3,5,6-trimethyl-N-(pyridin-4-ylmethyl)benzofuran-2-carboxamide], the activity at 10 µM is 301 to 400%.

For `CCOCC(=O)Nc1ccc(-c2nc3ccc(C)cc3s2)cc1` [Example 657, 2-ethoxy-N-(4-(6-methylbenzo[d]thiazol-2-yl)phenyl)acetamide], the activity at 10 µM fell in the range of 301 to 400%.

`O=C(Nc1nc2ccc(F)cc2s1)c1cccs1` [Example 658, N-(6-fluorobenzo[d]thiazol-2-yl)thiophene-2-carboxamide]: the activity at 10 µM lay in the range of 301 to 400%.

Turning to `Cc1nn(-c2nc3ccccc3[nH]2)c(N)c1-c1ccccc1` [Example 659, 1-(1H-benzo[d]imidazol-2-yl)-3-methyl-4-phenyl-1H-pyrazol-5-amine], the activity at 10 µM is 301 to 400%.

For the compound `CCOCCC(=O)Nc1ccc(-c2nc3ccc(C)cc3s2)cc1` [Example 660, 3-ethoxy-N-(4-(6-methylbenzo[d]thiazol-2-yl)phenyl)propanamide], the activity at 10 µM was 301 to 400%.

On to `O=C(Nc1ccc(-c2nc3ccccc3s2)cc1)C1CC1` [Example 661, N-(4-(benzo[d]thiazol-2-yl)phenyl)cyclopropanecarboxamide], for which the activity at 10 µM was in the range of 301 to 400%.

Regarding `CC(=O)Nc1ccc(-c2nc3cc(C)ccc3o2)cc1` [Example 662, N-(4-(5-methylbenzo[d]oxazol-2-yl)phenyl)acetamide], the activity at 10 µM is 301 to 400%.

Turning to `Cc1ccc(NC(=O)C(=O)c2c[nH]c3ccccc23)c(Br)c1` [Example 663, N-(2-bromo-4-methylphenyl)-2-(1H-indol-3-yl)-2-oxoacetamide], the activity at 10 µM lay in the range of 301 to 400%.

With `Cc1ccc2nc(-c3ccc(N)cc3)sc2c1` [Example 664, 4-(6-methylbenzo[d]thiazol-2-yl)aniline], the activity at 10 µM lay within 201 to 300%.

As for `O=C(NCCc1ccccc1)c1cc2ccccc2o1` [Example 665, N-phenethylbenzofuran-2-carboxamide], the activity at 10 µM was in the range of 201 to 300%.

Regarding `Cn1c(CNc2ccc(Cl)cc2)nc2ccccc21` [Example 666, 4-chloro-N-((1-methyl-1H-benzo[d]imidazol-2-yl)methyl)aniline], the activity at 10 µM was 201 to 300%.

Turning to `CCC(=O)Nc1ccc(-c2nc3ccccc3s2)cc1` [Example 667, N-(4-(benzo[d]thiazol-2-yl)phenyl)propionamide], the activity at 10 µM was in the range of 201 to 300%.

For `CCC(=O)Nc1ccc2oc(-c3cccc(C)c3)nc2c1` [Example 668, N-(2-m-tolylbenzo[d]oxazol-5-yl)propionamide], the activity at 10 µM is 201 to 300%.

As for `Cn1c(NC(=N)c2ccccc2)nc2ccccc21` [Example 669, N-(1-methyl-1H-benzo[d]imidazol-2-yl)benzimidamide], the activity at 10 µM fell in the range of 201 to 300%.

Take `O=C(Nc1nc2ccccc2s1)c1cc(Br)ccc1Cl` [Example 671, N-(benzo[d]thiazol-2-yl)-5-bromo-2-chlorobenzamide]: the activity at 10 µM fell in the range of 201 to 300%.

In the case of `Cc1ccc2nc(-c3ccc(NC(=O)c4cccs4)cc3)oc2c1` [Example 672, N-(4-(6-methylbenzo[d]oxazol-2-yl)phenyl)thiophene-2-carboxamide], the activity at 10 µM is 201 to 300%.

Consider `Nc1c(C(=O)Nc2ccccc2F)sc2nc3c(cc12)CCC3` [Example 673, 3-amino-N-(2-fluorophenyl)-6,7-dihydro-5H-cyclopenta[e]thieno[2,3-b]pyridine-2-carboxamide], for which the activity at 10 µM was 201 to 300%.

In the case of `OCc1cn(-c2ccccc2)nc1-c1cc2ccccc2o1` [Example 674, (3-(benzofuran-2-yl)-1-phenyl-1H-pyrazol-4-yl)methanol], the activity at 10 µM is 201 to 300%.

Turning to `COc1ccc(-c2nc3cc(C)ccc3o2)cc1` [Example 675, 2-(4-methoxyphenyl)-5-methylbenzo[d]oxazole], the activity at 10 µM fell in the range of 201 to 300%.

Consider `CCOc1ccc(NCc2nc3ccccc3n2C)cc1` [Example 676, 4-ethoxy-N-((1-methyl-1H-benzo[d]imidazol-2-yl)methyl)aniline], for which the activity at 10 µM was 201 to 300%.

As for `Cc1ccc2oc(-c3ccc(Cl)c(NC(=O)c4ccco4)c3)nc2c1` [Example 677, N-(2-chloro-5-(5-methylbenzo[d]oxazol-2-yl)phenyl)furan-2-carboxamide], the activity at 10 µM lay in the range of 201 to 300%.

On to `Cc1nc(Nc2nc3ccccc3o2)nc2c1CCC2` [Example 678, N-(4-methyl-6,7-dihydro-5H-cyclopenta[d]pyrimidin-2-yl)benzo[d]oxazol-2-amine], for which the activity at 10 µM was in the range of 201 to 300%.

For the compound `O=C(Nc1nc2ccccc2[nH]1)c1cccc(Cl)c1` [Example 679, N-(1H-benzo[d]imidazol-2-yl)-3-chlorobenzamide], the activity at 10 µM lay within 201 to 300%.

As to `O=C(Nc1ccc(-c2nc3ccccc3s2)cc1)C1CCCO1` (stereo not drawn) [Example 680, N-(4-(benzo[d]thiazol-2-yl)phenyl)tetrahydrofuran-2-carboxamide], the activity at 10 µM lay in the range of 201 to 300%.

With `CC(=O)c1c(C)nc(Nc2nc3ccccc3o2)nc1C` [Example 681, 1-(2-(benzo[d]oxazol-2-ylamino)-4,6-dimethylpyrimidin-5-yl)ethanone], the activity at 10 µM lay within 201 to 300%.

Consider `Cc1ccnc(Nc2nc3ccccc3o2)n1` [Example 682, N-(4-methylpyrimidin-2-yl)benzo[d]oxazol-2-amine], for which the activity at 10 µM fell in the range of 201 to 300%.

Regarding `CN(C)S(=O)(=O)c1ccc2nc(NC(=O)c3cccs3)sc2c1` [Example 683, N-(6-(N,N-dimethylsulfamoyl)benzo[d]thiazol-2-yl)thiophene-2-carboxamide], the activity at 10 µM lay within 201 to 300%.

For the compound `Cc1ccc2oc(-c3cc(NC(=O)c4cncc(Br)c4)ccc3O)nc2c1` [Example 684, 5-bromo-N-(4-hydroxy-3-(5-methylbenzo[d]oxazol-2-yl)phenyl)nicotinamide], the activity at 10 µM is 201 to 300%.

`O=C(CSc1nc[nH]n1)Nc1ccc(-c2nc3ccccc3s2)cc1` [Example 685, 2-(1H-1,2,4-triazol-3-ylthio)-N-(4-(benzo[d]thiazol-2-yl)phenyl)acetamide]: the activity at 10 µM was in the range of 201 to 300%.

In the case of `COc1ccc2oc(-c3ccc(C)c(N)c3)nc2c1` [Example 686, 5-(5-methoxybenzo[d]oxazol-2-yl)-2-methylaniline], the activity at 10 µM lay in the range of 201 to 300%.

Consider `CNS(=O)(=O)c1ccc2nc(NC(=O)c3cccs3)sc2c1` [Example 687, N-(6-(N-methylsulfamoyl)benzo[d]thiazol-2-yl)thiophene-2-carboxamide], for which the activity at 10 µM fell in the range of 201 to 300%.

On to `Cc1ccc2sc(-c3ccc(NC(=O)c4cc(-n5cnnc5)ccc4Cl)cc3)nc2c1` [Example 688, 2-chloro-N-(4-(5-methylbenzo[d]thiazol-2-yl)phenyl)-5-(4H-1,2,4-triazol-4-yl)benzamide], for which the activity at 10 µM lay in the range of 201 to 300%.

For the compound `O=C(Nc1ccccc1F)C(=O)c1c[nH]c2ccccc12` [Example 689, N-(2-fluorophenyl)-2-(1H-indol-3-yl)-2-oxoacetamide], the activity at 10 µM lay within 201 to 300%.
